Results as given in patent publication US20080293771A1, “AZACYCLYLBENZAMIDE DERIVATIVES AS HISTAMINE-3 ANTAGONISTS” (Wyeth, priority 2007, published 2008).
Counter-ions that a name gives are not always drawn.

First: CC(C)N1CCC(N(C)C(=O)c2ccc(-n3cc4ccccc4n3)cc2)CC1 (as salt: hydrochloride) [Example 69, 4-(2H-indazol-2-yl)-N-(1-isopropylpiperidin-4-yl)-N-methylbenzamide]
Second: CC(C)N1CCC(N(C)C(=O)c2ccc(-n3ncc4ccccc43)cc2)CC1 (as salt: hydrochloride) [Example 72, 4-(1H-indazol-1-yl)-N-(1-isopropylpiperidin-4-yl)-N-methylbenzamide]
The melting point of the first is higher: 166 to 168 °C for the first, 151 to 162 °C for the second.

First: CN(C(=O)c1ccc(-n2cc3ccccc3n2)cc1)C1CCN(C2CCC2)CC1 (as salt: hydrochloride) [Example 70, N-(1-cyclobutylpiperidin-4-yl)-4-(2H-indazol-2-yl)-N-methylbenzamide]
Second: CN(C(=O)c1ccc(-n2cc3ccccc3n2)cc1)C1CCN(C2CCCC2)CC1 (as salt: hydrochloride) [Example 71, N-(1-cyclopentylpiperidin-4-yl)-4-(2H-indazol-2-yl)-N-methylbenzamide]
The melting point of the first is lower: 273 to 275 °C for the first, 283 to 285 °C for the second.

First: CN(C(=O)c1ccc(Cn2ncc3ccccc32)cc1)[C@@H]1CCNC1 (as salt: hydrochloride) [Example 75, (R)-4-((1H-indazol-1-yl)methyl)-N-methyl-N-(pyrrolidin-3yl)benzamide]
Second: CC(C)N1CC[C@@H](N(C)C(=O)c2ccc(Cn3ncc4ccccc43)cc2)C1 (as salt: hydrochloride) [Example 76, 4-(1H-indazol-1-ylmethyl)-N-[(3R)-1-isopropylpyrrolidin-3-yl]-N-methylbenzamide]
The melting point of the first is higher: 255 to 256 °C for the first, 156 to 158 °C for the second.

First: CN(C(=O)c1ccc(Cn2ncc3ccccc32)cc1)[C@@H]1CCN(C2CCC2)C1 (as salt: hydrochloride) [Example 77, N-[(3R)-1-cyclobutylpyrrolidin-3-yl]-4-(1H-indazol-1-ylmethyl)-N-methylbenzamide]
Second: CN(C(=O)c1ccc(Cn2ncc3ccccc32)cc1)[C@@H]1CCN(C2CCCC2)C1 (as salt: hydrochloride) [Example 78, N-[(3R)-1-cyclopentylpyrrolidin-3-yl]-4-(1H-indazol-1-ylmethyl)-N-methylbenzamide]
The melting point of the first is higher: 105 to 106 °C for the first, 98 to 99 °C for the second.

First: CC(C)N1CCC(N(C)C(=O)c2ccc(Cn3ncc4ccccc43)cc2)CC1 (as salt: hydrochloride) [Example 79, 4-(1H-indazol-1-ylmethyl)-N-(1-isopropylpiperidin-4-yl)-N-methylbenzamide]
Second: CN(C(=O)c1ccc(Cn2ncc3ccccc32)cc1)C1CCN(C2CCC2)CC1 (as salt: hydrochloride) [Example 80, N-(1-cyclobutylpiperidin-4-yl)-4-(1H-indazol-1-ylmethyl)-N-methylbenzamide]
The melting point of the first is lower: 197 to 199 °C for the first, 254 to 256 °C for the second.

First: CN(C(=O)c1ccc(Cn2ncc3ccccc32)cc1)C1CCN(C2CCCC2)CC1 (as salt: hydrochloride) [Example 81, N-(1-cyclopentylpiperidin-4-yl)-4-(1H-indazol-1-ylmethyl)-N-methylbenzamide]
Second: CC(C)N1CCC(N(C)C(=O)c2ccc(-n3cccn3)cc2)CC1 (as salt: hydrochloride) [Example 85, N-(1-isopropylpiperidin-4-yl)-N-methyl-4-(1H-pyrazol-1-yl)benzamide]
The melting point of the first is lower: 265 to 267 °C for the first, 285 to 286 °C for the second.

For `CN(C(=O)c1ccc(-n2ncc3ccccc32)cc1)C1CCN(C2CCC2)CC1` (as salt: hydrochloride) [Example 73, N-(1-cyclobutylpiperidin-4-yl)-4-(1H-indazol-1-yl)-N-methylbenzamide], the melting point was 160 °C (dec.).
For `CN(C(=O)c1ccc(-n2ncc3ccccc32)cc1)C1CCN(C2CCCC2)CC1` (as salt: hydrochloride) [Example 74, N-(1-cyclopentylpiperidin-4-yl)-4-(1H-indazol-1-yl)-N-methylbenzamide], the melting point was 240 °C (dec.).
